Assay results taken from article PMC5640845, “Screening of FDA-Approved Drugs for Inhibitors of Japanese Encephalitis Virus Infection” (Journal of Virology, 2017).
Structures can show the parent of a compound that is named as a salt.

What was measured:
[1] = Cytotoxicity (CC50) of compounds from the reconfirmation screen; assay type: cell-based; details: African green monkey, Vero cells; 50% cytotoxic concentration
[2] = test system: DENV-2 replicon; assay: DENV-2 replicon luciferase assay in BHK-21 cells; assay type: cell-based, dengue virus type 2; details: 72 h
Description: FIG 4 Broad-spectrum antiviral activity of the hit drugs against flaviviruses. […] The hit drugs were added to the cells at 1 h preinfection and were present throughout the experiment. At 48 h postinfection, the cell culture supernatants were subjected to a viral titer assay (top left), while cell lysates were assessed for viral RNA quantification (top right), and duplicate cells were analyzed by IFA for E protein (green) expression (bottom). Nuclei (blue) were stained with DAPI (4′,6-diamidino-2-phenylindole). (B and C) BHK-21 cells transfected with the WNV or DENV-2 replicon were treated with the hit drugs at the indicated concentrations, and luciferase activities were determined 48 h or 72 h later.
To ensure the effectiveness of the hit drugs in flavivirus replication, BHK-21 cells transfected with the JEV, WNV, or DENV-2 replicon were incubated with each drug at the concentrations indicated above, and the luciferase activities were determined 24 h, 48 h, or 72 h later, respectively.

[3] = test system: JEV RVP; assay: in vitro; details: African green monkey, SI (selective index, CC50/IC50), Vero cells
[4] = test system: JEV RVP; assay: microbe, parasite or virus in culture; details: Japanese encephalitis virus, Vero; for IC50: 24 h; for inhibition at 10 µM: read-out: level of inhibition in the primary screen
[5] = test system: ZIKV; assay: ZIKV infection of Vero cells (viral titer, RNA, IFA); assay type: cell-based, Zika virus; details: 48 h; for ZIKV plaque formation: 10 μM, Vero cells
[6] = test system: JEV RVP; details: Vero cells
[7] = test system: JEV; assay: IFA of JEV infection with calcium inhibitors on Vero and Huh-7 cells; assay type: cell-based, Japanese encephalitis virus
[8] = test system: JEV NS4B Q130 mutant viruses; assay type: cell-based, Japanese encephalitis virus
[9] = test system: YFV; assay type: cell-based, yellow fever virus
[10] = test system: JEV strain AT31; details: mouse, in vivo
[11] = test system: JEV strain AT31; assay: qRT-PCR quantification of JEV RNA in cell lysates; details: high-, middle- and low-dose groups, 24 h

## Cc1c(O)cccc1C(=O)N[C@@H](CSc1ccccc1)[C@H](O)CN1C[C@H]2CCCC[C@H]2C[C@H]1C(=O)NC(C)(C)C [Nelfinavir Mesylate]
[1]
  CC50: 27.1 µM
[2]
  level of DENV-2 replication (replicon luciferase): no effect at the concentrations tested
[3]
  selectivity ratio: 16.8
[4]
  IC50: 1.6 µM

## Clc1ccc(C(c2ccccc2Cl)C(Cl)Cl)cc1 (stereo not drawn) [Mitotane]
[1]
  CC50: 25.9 µM
[3]
  selectivity ratio: 3.9
[4]
  IC50: 6.6 µM

## CCOC(=O)C1=C(C)NC(C)=C(C(=O)OCC)C1c1ccccc1/C=C/C(=O)OC(C)(C)C [Lacidipine]
[1]
  CC50: 14.1 µM
[3]
  selectivity ratio: 4
[4]
  IC50: 3.5 µM

## Clc1ccc(CCC(Cn2ccnc2)Sc2c(Cl)cccc2Cl)cc1 (stereo not drawn) [Butoconazole Nitrate]
[1]
  CC50: 15.7 µM
[3]
  selectivity ratio: 4
[4]
  IC50: 4 µM

## COC(=O)C1=C(C)NC(C)=C(C(=O)OCCN(C)Cc2ccccc2)C1c1cccc([N+](=O)[O-])c1 (stereo not drawn) [nicardipine hydrochloride]
[4]
  inhibition at 10 µM: 66%

## COCCOC(=O)C1=C(C)NC(C)=C(C(=O)OC/C=C/c2ccccc2)C1c1cccc([N+](=O)[O-])c1 (stereo not drawn) [Cilnidipine]
[1]
  CC50: > 100 µM
[5]
  ZIKV plaque formation: no plaque formation
[3]
  selectivity ratio: > 28.6
[4]
  IC50: 3.5 µM

## COc1ccc(CN2CCN(C(c3ccc(F)cc3)c3ccc(F)cc3)CC2)c(OC)c1OC.Cl.Cl [lomerizine hydrochloride]
[6]; 10 μM compound
  level of inhibition in the primary screen: > 90%

## CCOC(=O)C1=C(C)NC(C)=C(C(=O)OC)C1c1cccc(Cl)c1Cl (stereo not drawn) [felodipine]
[4]
  inhibition at 10 µM: 72%

## COC(=O)C1=C(C)NC(C)=C(C(=O)OC2CCCN(Cc3ccccc3)C2)C1c1cccc([N+](=O)[O-])c1 (stereo not drawn) [Benidipine hydrochloride]
[1]
  CC50: 55.9 µM
[3]
  selectivity ratio: 15
[4]
  IC50: 3.7 µM

## COC(=O)C1=C(C)NC(C)=C(C(=O)OCC(C)C)C1c1ccccc1[N+](=O)[O-] (stereo not drawn) [nisoldipine]
[4]
  inhibition at 10 µM: 75%

## COc1ccc(CCN(C)CCCC(C#N)(c2ccc(OC)c(OC)c2)C(C)C)cc1OC (stereo not drawn) [Verapamil]
[7]
  inhibition of JEV infection (IFA, prM-positive cells vs DMSO control): dose-dependent inhibition

## Fc1ccc(C(c2ccc(F)cc2)N2CCN(C/C=C/c3ccccc3)CC2)cc1 [flunarizine dihydrochloride]
[4]
  inhibition at 10 µM: > 90%

## CC(=O)OCOC(=O)CN(CC(=O)OCOC(C)=O)c1ccccc1OCCOc1ccccc1N(CC(=O)OCOC(C)=O)CC(=O)OCOC(C)=O [BAPTA-AM, 1,2-bis-(o-aminophenoxy)-ethane-N,N,N′,N′-tetraacetic acid, tetraacetoxymethyl ester]
[7]
  inhibition of JEV infection (IFA, prM-positive cells vs DMSO control): suppress JEV infection

## COC(=O)C1=C(C)NC(C)=C(C(=O)OCCN2CCN(C(c3ccccc3)c3ccccc3)CC2)C1c1cccc([N+](=O)[O-])c1 (stereo not drawn) [Manidipine]
[1]
  CC50: > 100 µM
[5]
  ZIKV plaque formation: no plaque formation
[5]; Zika virus, Vero, read-out: inhibition of ZIKV viral replication, translation, and viral yields
  inhibition at 5 µM: 95%
[8]
  decrease of viral titer, Q130A mutant JEV: higher than 2 log-unit
  decrease of viral titer, Q130K mutant JEV: less than 2 log units
  decrease of viral titer, Q130R mutant JEV: less than 2 log units
  reduction of viral yields, WT JEV: approximately 4 log units
  resistance of Q130E mutant JEV to the drug: no resistance
[9]
  sensitivity of YFV to the drug: resistance
[10]
  effect on peripheral JEV infection (serum and spleen viral loads): little effect
  histopathological changes in brain (meningitis, perivascular cuffing, vacuolar degeneration, glial nodules): remarkably alleviated
[10]; ip, 25 mg/kg
  abnormal behavior of treated mice: little abnormal behavior
  animals survived: 12 out of 15
  mortality rate: 20%
[3]
  selectivity ratio: > 62.5
[4]
  IC50: 1.6 µM
[11]
  attenuation of JEV RNA levels (inhibitory effect vs control): at least 80%

## CC[C@@H]1/C=C(\C)C[C@H](C)C[C@H](OC)[C@H]2O[C@@](O)(C(=O)C(=O)N3CCCC[C@H]3C(=O)O[C@H](/C(C)=C/[C@@H]3CC[C@H](Cl)[C@H](OC)C3)[C@H](C)[C@@H](O)CC1=O)[C@H](C)C[C@@H]2OC [Pimecrolimus]
[1]
  CC50: > 100 µM
[6]
  SI (selective index, CC50/IC50): > 32
[3]
  selectivity ratio: > 32.3
[4]
  IC50: 3.1 µM
